Measurements reported in EP0813412B1, “GEL FOR THE LOCAL HORMONOTHERAPY OF VAGINAL DRYNESS” (priority 1995, dated 1997).

Experiments:
[1] = tested on: récepteurs à haute affinité pour l'estradiol au niveau de l'épithélium vaginal; conditions: estrogen receptors; cited from earlier work
[2] = Clinical trial, repeated vaginal application for 13 days: clinical and biological tolerance; assay type: in vivo, femme; conditions: 10 µg vaginal, repeated for 13 days
Description: Ces événements d'intensité mineure n'ont pas empêché la poursuite de l'étude. La tolérance biologique a été excellente. Aucune anomalie ayant une signification clinique n'a été rapportée.

[3] = assay type: in vivo, femme
Procedure: Une première solution consiste à réduire la teneur en principe actif, typiquement à des doses de 5 µg ou même 2,5 µg par application unitaire.

[4] = 10 µg, free micronised form in gel, single dose

| SMILES | activity profile (agonist / antagonist) [1] | tolérance biologique [2] | tolérance clinique ([2]; sixteen subjects, free micronised form in gel) | effets indésirables (céphalées, épisodes de vomissements et bouffées de chaleur) ([2]; sixteen subjects, minor intensity) | surface sous la courbe ([3]; 10 µg vaginal gel, steady state) | pic plasmatique d'estradiol ([3]; 10 µg vaginal gel, steady state compared with first application) | concentration plasmatique maximale du pic [3, 4] | time of the plasma peak (pic plasmatique) [3, 4] |
| --- | --- | --- | --- | --- | --- | --- | --- | --- |
| C[C@]12CC[C@@H]3c4ccc(O)cc4CC[C@H]3[C@@H]1C[C@@H](O)[C@@H]2O [estriol] | agoniste partiel, voire d'antagoniste | – | – | – | – | – | – | – |
| C[C@]12CC[C@@H]3c4ccc(O)cc4CC[C@H]3[C@@H]1CC[C@@H]2O [17β-estradiol] | – | excellente | excellente pour treize sujets sur seize | Trois sujets ont signalé des effets indésirables | comparable à celle obtenue après la première application | tend à être plus faible et retardé | du même ordre que le taux physiologique moyen observés la première semaine de la phase folliculaire chez la femme fertile | une heure environ |
